Assay results taken from US20230365546A1, “5-SUBSTITUTED INDOLE 3-AMIDE DERIVATIVES, PREPARATION METHOD AND USE THEREOF” (ORIGIANT PHARMACEUTICAL CO., LTD, priority 2020, published 2023).

What was measured:
Assay in all cases: Kinase Profiler 10 μM panel
[1] = target: PKBα(h) (Homo sapiens (Human), UniProt P31749)
Method: (§1) In vitro kinase assays were conducted using Kinase Profiler services provided by Eurofins. The experimental method was as follows: the small molecule compound to be tested (0.001-10 μM), the protein kinase to be tested were incubated with a buffer containing substrate, 10 mM magnesium acetate, and [γ-^33P-ATP], the reaction was started by adding Mg\TPmix, after incubation for a period of time at room temperature, a 3% phosphate solution was added to the buffer to stop the reaction. Subsequently, 10 μL of the reaction mixture was quantitatively pipetted onto P30 filter paper, which was washed three times with 75 mM phosphate solution and then once with methanol. The P30 filter paper was air-dried and scintillation fluid was added for scintillation counting.

[2] = target: Abl(m) (Mus musculus (Mouse), UniProt P00520)
Method: as §1

[3] = target: TAO1(h) (Homo sapiens (Human), UniProt Q7L7X3)
Method: as §1

[4] = target: PDGFRβ(h) (Homo sapiens (Human), UniProt P09619)
Method: as §1

[5] = target: Arg(m) (Mus musculus (Mouse), UniProt Q4JIM5)
Method: as §1

[6] = target: STK25(h) (Homo sapiens (Human), UniProt O00506)
Method: as §1

[7] = target: CDK13/cyclinK(h) (Homo sapiens (Human), UniProt Q14004); type: biochemical
Method: as §1

[8] = target: Met(M1268T)(h) (Homo sapiens (Human), UniProt P08581, M1250T)
Method: as §1

[9] = target: Axl(h) (Homo sapiens (Human), UniProt P30530)
Method: as §1

[10] = tested on: MLCK(h)
Method: as §1

[11] = target: Met(D1246N)(h) (Homo sapiens (Human), UniProt P08581, D1228N)
Method: as §1

[12] = target: MYO3B(h) (Homo sapiens (Human), UniProt Q8WXR4)
Method: as §1

[13] = target: LKB1(h) (Homo sapiens (Human), UniProt Q15831)
Method: as §1

[14] = target: PKR(h) (Homo sapiens (Human), UniProt P19525)
Method: as §1

[15] = target: ROCK-I(h) (Homo sapiens (Human), UniProt Q13464)
Method: as §1

[16] = target: DAPK1(h) (Homo sapiens (Human), UniProt P53355)
Method: as §1

[17] = target: PIP5K1a(h) (Homo sapiens (Human), UniProt Q99755)
Method: as §1

[18] = target: GRK5(h) (Homo sapiens (Human), UniProt P34947)
Method: as §1

[19] = target: CK1γ1(h) (Homo sapiens (Human), UniProt Q9HCP0)
Method: as §1

[20] = target: Src(1-530)(h) (Homo sapiens (Human), UniProt P12931)
Method: as §1

[21] = target: GRK6(h) (Homo sapiens (Human), UniProt P43250)
Method: as §1

[22] = target: CaMKIIα(h) (Homo sapiens (Human), UniProt Q9UQM7)
Method: as §1

[23] = target: Mer(h) (Homo sapiens (Human), UniProt Q12866)
Method: as §1

[24] = target: ULK1(h) (Homo sapiens (Human), UniProt O75385)
Method: as §1

[25] = target: PI3 Kinase (p110d/p85a)(h) (Homo sapiens (Human), UniProt O00329)
Method: as §1

[26] = target: Rse(h) (Homo sapiens (Human), UniProt Q06418)
Method: as §1

[27] = target: SAPK2a(T106M)(h) (Homo sapiens (Human), UniProt Q16539, T106M)
Method: as §1

[28] = target: CK1ϵ(h) (Homo sapiens (Human), UniProt P49674)
Method: as §1

[29] = target: SNRK(h) (Homo sapiens (Human), UniProt Q9NRH2)
Method: as §1

[30] = target: MSK2(h) (Homo sapiens (Human), UniProt O75676)
Method: as §1

[31] = target: PAK6(h) (Homo sapiens (Human), UniProt Q9NQU5)
Method: as §1

[32] = target: PKD2(h) (Homo sapiens (Human), UniProt Q9BZL6)
Method: as §1

[33] = target: MST1(h) (Homo sapiens (Human), UniProt Q13043)
Method: as §1

[34] = target: TLK1(h) (Homo sapiens (Human), UniProt Q9UKI8)
Method: as §1

Sequence of ULK1(h) (O75385 whole entry): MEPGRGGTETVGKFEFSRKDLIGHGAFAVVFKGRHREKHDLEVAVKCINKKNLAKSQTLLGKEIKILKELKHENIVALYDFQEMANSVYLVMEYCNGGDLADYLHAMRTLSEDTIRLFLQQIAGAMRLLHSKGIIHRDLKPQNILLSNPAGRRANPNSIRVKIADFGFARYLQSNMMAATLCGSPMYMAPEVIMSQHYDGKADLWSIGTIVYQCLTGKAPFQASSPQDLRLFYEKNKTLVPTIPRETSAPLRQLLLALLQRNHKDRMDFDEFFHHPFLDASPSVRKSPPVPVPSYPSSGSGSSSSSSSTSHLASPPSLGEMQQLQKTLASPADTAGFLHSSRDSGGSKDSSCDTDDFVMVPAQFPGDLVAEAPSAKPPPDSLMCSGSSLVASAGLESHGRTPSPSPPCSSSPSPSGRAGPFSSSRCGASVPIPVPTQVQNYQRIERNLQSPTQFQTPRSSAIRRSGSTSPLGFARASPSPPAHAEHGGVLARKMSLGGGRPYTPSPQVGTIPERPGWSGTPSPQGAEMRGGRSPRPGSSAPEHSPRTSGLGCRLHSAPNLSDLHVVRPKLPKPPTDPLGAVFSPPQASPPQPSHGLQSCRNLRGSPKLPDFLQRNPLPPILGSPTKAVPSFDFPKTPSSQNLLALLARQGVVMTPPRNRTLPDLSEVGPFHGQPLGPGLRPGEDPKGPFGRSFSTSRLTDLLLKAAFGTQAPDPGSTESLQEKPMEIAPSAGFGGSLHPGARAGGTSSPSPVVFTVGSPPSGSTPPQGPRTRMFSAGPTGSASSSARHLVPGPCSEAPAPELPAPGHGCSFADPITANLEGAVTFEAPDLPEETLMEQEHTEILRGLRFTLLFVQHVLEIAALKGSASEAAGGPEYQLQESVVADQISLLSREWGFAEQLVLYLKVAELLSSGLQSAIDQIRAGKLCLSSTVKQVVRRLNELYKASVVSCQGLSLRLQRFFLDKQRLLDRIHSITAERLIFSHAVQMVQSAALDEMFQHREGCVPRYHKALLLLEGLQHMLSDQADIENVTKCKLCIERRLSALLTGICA
Sequence of Axl(h) (P30530 26-894): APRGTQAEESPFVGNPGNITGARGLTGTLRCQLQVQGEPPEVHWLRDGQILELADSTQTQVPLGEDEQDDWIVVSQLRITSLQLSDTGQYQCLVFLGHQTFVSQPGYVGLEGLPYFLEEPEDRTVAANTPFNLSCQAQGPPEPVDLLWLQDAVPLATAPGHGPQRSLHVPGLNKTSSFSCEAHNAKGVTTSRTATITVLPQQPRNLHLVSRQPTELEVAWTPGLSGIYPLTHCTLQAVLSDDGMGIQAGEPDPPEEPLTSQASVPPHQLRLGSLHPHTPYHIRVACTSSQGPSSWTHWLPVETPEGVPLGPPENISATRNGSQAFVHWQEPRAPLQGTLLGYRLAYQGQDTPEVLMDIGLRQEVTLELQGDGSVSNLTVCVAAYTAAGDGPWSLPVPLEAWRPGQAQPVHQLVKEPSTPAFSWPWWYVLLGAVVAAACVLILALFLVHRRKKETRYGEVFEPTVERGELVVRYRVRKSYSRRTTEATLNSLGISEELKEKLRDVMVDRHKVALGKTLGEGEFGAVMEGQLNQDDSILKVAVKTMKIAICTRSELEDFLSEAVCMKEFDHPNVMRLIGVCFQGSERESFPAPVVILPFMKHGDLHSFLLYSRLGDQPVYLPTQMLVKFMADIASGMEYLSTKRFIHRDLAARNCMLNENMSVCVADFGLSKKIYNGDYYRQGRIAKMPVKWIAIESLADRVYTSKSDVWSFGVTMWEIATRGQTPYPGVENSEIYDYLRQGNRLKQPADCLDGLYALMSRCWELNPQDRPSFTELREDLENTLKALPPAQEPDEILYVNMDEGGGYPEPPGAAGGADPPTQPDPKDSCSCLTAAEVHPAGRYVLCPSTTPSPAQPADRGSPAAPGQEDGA
Sequence of CK1γ1(h) (Q9HCP0 whole entry): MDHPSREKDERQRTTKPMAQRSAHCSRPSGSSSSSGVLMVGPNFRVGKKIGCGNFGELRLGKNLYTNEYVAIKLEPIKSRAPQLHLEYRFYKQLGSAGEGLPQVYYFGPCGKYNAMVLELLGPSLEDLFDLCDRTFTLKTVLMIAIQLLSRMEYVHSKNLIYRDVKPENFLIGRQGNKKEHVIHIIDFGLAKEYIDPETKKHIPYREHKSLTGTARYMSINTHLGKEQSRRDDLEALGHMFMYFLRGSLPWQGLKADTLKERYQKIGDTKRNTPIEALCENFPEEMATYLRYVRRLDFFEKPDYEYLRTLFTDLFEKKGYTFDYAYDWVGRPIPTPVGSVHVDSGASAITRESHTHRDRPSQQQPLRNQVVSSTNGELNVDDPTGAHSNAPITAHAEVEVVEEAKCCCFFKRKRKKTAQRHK
Sequence of Src(1-530)(h) (P12931 whole entry, looked up): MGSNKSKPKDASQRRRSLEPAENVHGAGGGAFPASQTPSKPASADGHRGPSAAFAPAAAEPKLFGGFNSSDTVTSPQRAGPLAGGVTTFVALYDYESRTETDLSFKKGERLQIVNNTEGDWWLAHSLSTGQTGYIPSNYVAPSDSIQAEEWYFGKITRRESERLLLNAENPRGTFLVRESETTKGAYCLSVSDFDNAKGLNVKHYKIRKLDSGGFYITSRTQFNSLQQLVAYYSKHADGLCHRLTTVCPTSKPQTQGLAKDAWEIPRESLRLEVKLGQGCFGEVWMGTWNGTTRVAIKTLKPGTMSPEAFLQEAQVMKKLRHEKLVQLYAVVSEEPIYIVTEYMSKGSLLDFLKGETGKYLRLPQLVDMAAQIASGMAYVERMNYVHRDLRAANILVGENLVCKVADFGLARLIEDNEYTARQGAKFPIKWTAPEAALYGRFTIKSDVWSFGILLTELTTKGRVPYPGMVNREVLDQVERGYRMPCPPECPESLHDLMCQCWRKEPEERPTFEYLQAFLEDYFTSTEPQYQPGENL
Sequence of PKD2(h) (Q9BZL6 whole entry): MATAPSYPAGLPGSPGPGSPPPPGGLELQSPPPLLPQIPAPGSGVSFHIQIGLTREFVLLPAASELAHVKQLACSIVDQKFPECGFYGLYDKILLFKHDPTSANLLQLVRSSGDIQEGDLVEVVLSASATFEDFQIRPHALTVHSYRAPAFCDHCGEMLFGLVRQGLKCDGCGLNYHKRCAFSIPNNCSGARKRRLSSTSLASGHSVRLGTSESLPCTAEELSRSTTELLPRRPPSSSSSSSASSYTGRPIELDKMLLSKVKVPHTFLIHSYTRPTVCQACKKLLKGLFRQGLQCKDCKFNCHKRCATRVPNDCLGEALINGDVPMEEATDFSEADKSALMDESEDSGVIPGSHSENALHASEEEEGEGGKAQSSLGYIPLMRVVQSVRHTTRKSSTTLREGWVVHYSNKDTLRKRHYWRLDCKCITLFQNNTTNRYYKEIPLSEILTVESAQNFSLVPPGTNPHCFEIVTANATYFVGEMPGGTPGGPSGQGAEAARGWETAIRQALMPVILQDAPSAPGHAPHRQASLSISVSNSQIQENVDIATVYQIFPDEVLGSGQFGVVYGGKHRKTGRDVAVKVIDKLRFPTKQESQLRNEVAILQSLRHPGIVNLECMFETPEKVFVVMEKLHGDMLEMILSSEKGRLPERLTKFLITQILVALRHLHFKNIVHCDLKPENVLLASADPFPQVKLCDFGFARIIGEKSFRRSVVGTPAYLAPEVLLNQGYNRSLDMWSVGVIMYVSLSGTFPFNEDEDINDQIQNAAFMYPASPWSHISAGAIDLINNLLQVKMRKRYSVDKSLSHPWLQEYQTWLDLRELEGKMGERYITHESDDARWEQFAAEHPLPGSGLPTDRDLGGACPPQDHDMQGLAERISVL
Sequence of PIP5K1a(h) (Q99755 whole entry): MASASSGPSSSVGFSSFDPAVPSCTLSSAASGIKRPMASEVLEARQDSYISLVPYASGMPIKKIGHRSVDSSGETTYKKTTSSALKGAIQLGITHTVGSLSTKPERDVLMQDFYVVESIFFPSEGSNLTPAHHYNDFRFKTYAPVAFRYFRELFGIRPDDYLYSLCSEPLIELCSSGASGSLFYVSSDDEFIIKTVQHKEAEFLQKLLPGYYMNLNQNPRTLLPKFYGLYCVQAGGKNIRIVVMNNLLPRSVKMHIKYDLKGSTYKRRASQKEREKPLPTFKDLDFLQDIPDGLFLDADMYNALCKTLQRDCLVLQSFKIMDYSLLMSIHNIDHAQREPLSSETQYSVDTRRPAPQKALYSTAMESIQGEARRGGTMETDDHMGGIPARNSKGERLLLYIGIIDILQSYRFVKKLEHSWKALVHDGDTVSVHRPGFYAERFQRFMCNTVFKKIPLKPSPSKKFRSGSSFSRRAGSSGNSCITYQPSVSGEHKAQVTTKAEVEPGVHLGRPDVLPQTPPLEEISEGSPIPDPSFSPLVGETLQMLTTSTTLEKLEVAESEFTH
Sequence of MST1(h) (Q13043 whole entry): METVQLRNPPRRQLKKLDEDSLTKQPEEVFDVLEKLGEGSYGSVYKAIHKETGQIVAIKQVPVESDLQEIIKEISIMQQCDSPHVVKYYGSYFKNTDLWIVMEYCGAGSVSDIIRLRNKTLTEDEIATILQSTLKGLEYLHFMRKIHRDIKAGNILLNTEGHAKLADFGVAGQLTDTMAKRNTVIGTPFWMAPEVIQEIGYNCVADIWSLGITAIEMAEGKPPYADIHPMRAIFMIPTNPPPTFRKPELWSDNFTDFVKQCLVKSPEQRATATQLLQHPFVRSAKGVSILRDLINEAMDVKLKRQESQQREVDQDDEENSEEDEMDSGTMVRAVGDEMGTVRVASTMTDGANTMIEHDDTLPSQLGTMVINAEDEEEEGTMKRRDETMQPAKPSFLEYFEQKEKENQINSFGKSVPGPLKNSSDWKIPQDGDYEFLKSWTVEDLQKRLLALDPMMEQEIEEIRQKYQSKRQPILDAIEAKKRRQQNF

SMILES: C[C@H](NC(=O)c1c[nH]c2ccc(-c3ccc4nc(NC(=O)C5CC5)sc4c3)cc12)c1cccc(F)c1 [Compound 34, (S)-5-(2-(cyclopropanecarboxamido)benzo[d]thiazol-6-yl)-N-(1-(3-fluorophenyl)ethyl)-1H-indole-3-carboxamide]
- Inhibition ratio [1]: 11%
- Inhibition ratio [2]: 99%
- Inhibition ratio [3]: 24%
- Inhibition ratio [4]: 9%
- Inhibition ratio [5]: 87%
- Inhibition ratio [6]: 2%
- Inhibition ratio [7]: 19%
- Inhibition ratio [8]: 93%
- Inhibition ratio [9]: 86%
- Inhibition ratio [10]: 14%
- Inhibition ratio [11]: 86%
- Inhibition ratio [12]: 16%
- Inhibition ratio [13]: 6%
- Inhibition ratio [14]: 11%
- Inhibition ratio [15]: 15%
- Inhibition ratio [16]: 12%
- Inhibition ratio [17]: 21%
- Inhibition ratio [18]: 0%
- Inhibition ratio [19]: 5%
- Inhibition ratio [20]: 54%
- Inhibition ratio [21]: 0%
- Inhibition ratio [22]: 5%
- Inhibition ratio [23]: 97%
- Inhibition ratio [24]: 11%
- Inhibition ratio [25]: 54%
- Inhibition ratio [26]: 69%
- Inhibition ratio [27]: 63%
- Inhibition ratio [28]: 35%
- Inhibition ratio [29]: −24%
- Inhibition ratio [30]: 23%
- Inhibition ratio [31]: −14%
- Inhibition ratio [32]: 46%
- Inhibition ratio [33]: 5%
- Inhibition ratio [34]: 19%

SMILES: C[C@H](NC(=O)c1cn(C)c2ccc(-c3ccn4nc(NC(=O)C5CC5)nc4c3)cc12)c1cccc(F)c1 [Compound 94, (S)-5-(2-(cyclopropanecarboxamido)-[1,2,4]triazolo[1,5-a]pyridin-7-yl)-N-(1-(3-fluorophenyl)ethyl)-1-methyl-1H-indole-3-carboxamide]
- Inhibition ratio/% [1]: −11%
- Inhibition ratio/% [2]: 61%
- Inhibition ratio/% [3]: 50%
- Inhibition ratio/% [4]: 49%
- Inhibition ratio/% [5]: 11%
- Inhibition ratio/% [6]: 26%
- Inhibition ratio/% [7]: 66%
- Inhibition ratio/% [8]: −10%
- Inhibition ratio/% [9]: 31%
- Inhibition ratio/% [10]: 14%
- Inhibition ratio/% [11]: −11%
- Inhibition ratio/% [12]: −18%
- Inhibition ratio/% [13]: 55%
- Inhibition ratio/% [14]: 19%
- Inhibition ratio/% [15]: −10%
- Inhibition ratio/% [16]: 40%
- Inhibition ratio/% [17]: 16%
- Inhibition ratio/% [18]: 21%
- Inhibition ratio/% [19]: 19%
- Inhibition ratio/% [20]: 20%
- Inhibition ratio/% [21]: 2%
- Inhibition ratio/% [22]: 76%
- Inhibition ratio/% [23]: −6%
- Inhibition ratio/% [24]: 45%
- Inhibition ratio/% [25]: −1%
- Inhibition ratio/% [26]: 53%
- Inhibition ratio/% [27]: −20%
- Inhibition ratio/% [28]: 59%
- Inhibition ratio/% [29]: 25%
- Inhibition ratio/% [30]: 9%
- Inhibition ratio/% [31]: 49%
- Inhibition ratio/% [32]: 9%
- Inhibition ratio/% [33]: 20%
- Inhibition ratio/% [34]: 11%
